Marks after values point to notes of the source that are not given here.

One data set concerns F11 cells. Nature of the data set: FLIPR calcium assay, activation of F11 cells. The data set is classed as cell-based. The following applies: F11 cells, FLIPR. On the procedure: F11 cells were cultured as previously described. Cells were maintained on Ham’s F12 media supplemented with 10% fetal bovine serum (FBS), 100 µM hypoxanthine, 0.4 µM aminopterin, and 16 µM thymidine (Hybri-MaxTM, Sigma Aldrich, North Ryde, Australia). Then, 384-well imaging plates (Corning) were seeded 48 h prior to imaging resulting in 90–95% confluence at imaging. Cells were incubated for 30 min with the Calcium 4 assay component A according to the manufacturer’s instructions (Molecular Devices, Sunnyvale, CA, USA) in physiological salt solution (PSS; composition in mM: 140 NaCl, 11.5 D-glucose, 5.9 KCl, 1.4 MgCl2, 1.2 NaH2PO4, 5 NaHCO3, 1.8 CaCl2, 10 HEPES) at 37°C. Fluorescence was measured using a fluorescent imaging plate reader (FLIPR^TETRA) equipped with a CCD camera (Excitation: 470–490 nm, Emission: […]) (Molecular Devices, Sunnyvale, CA, USA). Signals were read every second for 10 s before, and 300 s after the addition of peptides in PSS supplemented with 0.1% bovine serum albumin. All data are the mean ± SEM of assays performed in triplicate. Maximum–minimum fluorescence in the 300 s period after peptide addition was recorded as the response. Concentration–response data were fitted with a four-parameter Hill equation (variable slope) using GraphPad Prism 8 to obtain effective concentration (EC50) values.

A further data set deals with Haemonchus contortus. The experiment in a line: microbe, parasite or virus in culture. The data set is classed as cell-based. The following applies: for IC50: H. contortus Kirby isolate, egg to infective L3, 6 days, 26 °C, three experiments of duplicate assays, ± SEM, for 1a the component at higher concentrations (about 90% of population), read-out: Anthelmintic Activity (IC50), inhibition of larval development. How it is done:
Sheep were infected with H. contortus Kirby isolate (field isolate from the University of New England Kirby Research Farm in 1986; susceptible to all commercial anthelmintics) and housed at the Commonwealth Scientific and Industrial Research Organisation (CSIRO) FD McMaster Laboratory, Armidale, NSW. All animal procedures were approved by the FD McMaster Animal Ethics Committee, CSIRO (Approval Number AEC 17/12, approval date 15.6.2017). Eggs were prepared from overnight fecal collection as described. In brief, feces were filtered through mesh filters, settled, and supernatant removed by vacuum. Eggs were recovered by density centrifugation using 10 and 25% (w/v) sucrose solutions, centrifuged at 650× g for 7 min. Eggs were recovered from the interface of the two sucrose layers, rinsed with distilled water, sterilized with bleach, rinsed again, and diluted to 4500 eggs/mL. Tylosin tartrate (800 μg/mL) and amphotericin B (25.0 μg/mL) were added, and eggs were used immediately for larval development assays.
Assays were conducted using 96-well microtitre plates, with each well containing 50 μL of 2% agar, 20 μL of egg solution and 20 μL of peptide solution in water. The commercial anthelmintic levamisole (Sigma Aldrich) was used as a positive control (final 1% v/v). Negative controls contained equivalent volumes of water or DMSO (final 1% v/v). Plates were incubated at 26 °C for six days. After 24 h, each well was fed with 10 μL of a nutrient solution containing Escherichia coli XL1-Blue1 (grown overnight at 37 °C) and growth medium. The growth medium consisted of yeast extract (1% w/v), Earle’s salt solution (10% v/v), saline solution (0.9% NaCl, w/v), and sodium bicarbonate (1 mM) in Luria-Bertani medium (LB). Larvae were killed and stained with Lugol’s iodine solution after six days. Larvae that had developed to the infective L3 stage were counted, and the numbers in treated assay wells were expressed as a percentage of the number of infective L3 stage larvae in multiple control wells. Concentrations that caused 50% inhibition (IC50 values) were calculated from three experiments of duplicate assays.

Another data set has as its system Drosophila melanogaster. Nature of the data set: Drosophila melanogaster microinjection assay. The data set is classed as in vivo. The following applies: intrathoracic injection, 50 nL, adult female flies, lethality at 24 h; three dose-response curves, ± SEM. On the procedure: The insecticidal activity of the chemically synthesized 1a and analogues thereof were determined by injection into adult female D. melanogaster aged 3–5 days (mass 0.7–0.9 mg) as described previously. Analogues were dissolved in water and intrathoracically injected using pulled glass capillaries at a volume of 50 nL per fruit fly, and the results were compared against an equivalent injection volume of water alone. All injections were performed in the morning or early afternoon. At 24 h post-injection flies were monitored for lethality. Dose–response curves were constructed using 7–10 doses per analogue (each dose tested in eight flies) and three separate dose–response curves were constructed for each analogue. The lethality in the groups receiving the analogues were adjusted using the respective control group lethality using the Henderson-Tilton formula [20]. The median lethal dose (LD50) of each analogue was calculated based on the three dose–response curves using GraphPad Prism 8.0 [21]. One-way ANOVA followed by Dunnett’s multiple comparison test were used to compare LD50 values.

A further data set concerns HEK293 cells. The following applies: HEK293, 24 h, resazurin; cited from earlier work. How it is done: Table 2 Summary of bioassay data for synthetic Mp1a and analogues, including effective concentration (EC50) for activation of F11 cells, concentrations that caused 50% inhibition (IC50) for inhibition of larval development of H. contortus; median lethal dose (LD50) for lethal insecticidal effects on D. melanogaster; concentrations required to induce 50% cell death (CC50) for effects on viability o | column: Cytotoxicity (CC50 µM) ^b
Background: The colour change of resazurin is a common sign of viable cells or microbes.

For the next data set, the system named is human red blood cells. The following applies: cited from earlier work. How it is done:
Table 2 Summary of bioassay data for synthetic Mp1a and analogues, including effective concentration (EC50) for activation of F11 cells, concentrations that caused 50% inhibition (IC50) for inhibition of larval development of H. contortus; median lethal dose (LD50) for lethal insecticidal effects on D. melanogaster; concentrations required to induce 50% cell death (CC50) for effects on viability o | column: Hemolysis (HC50 µM) ^b

[1] abbreviates: Calcium 4 dye, max-min fluorescence in 300 s after peptide addition, PSS with 0.1% BSA, mean ± SEM, triplicate.

For `CC[C@H](C)[C@H](N)C(=O)N[C@@H](CC(=O)O)C(=O)N[C@@H](Cc1c[nH]c2ccccc12)C(=O)N[C@@H](CCCCN)C(=O)N[C@@H](CCCCN)C(=O)N[C@H](C(=O)N[C@@H](CC(=O)O)C(=O)N[C@@H](Cc1c[nH]c2ccccc12)C(=O)N[C@@H](CCCCN)C(=O)N[C@@H](CCCCN)C(=O)N[C@H](C(=O)N[C@@H](CO)C(=O)N[C@@H](CCCCN)C(=O)N[C@@H](CCCCN)C(=O)N[C@H](C(=O)N[C@H]1CSSC[C@@H](C(=O)N[C@@H](CCCCN)C(=O)N[C@@H](CCCCN)C(=O)N[C@H](C(=O)N[C@@H](CC(C)C)C(=O)N[C@@H](CCCCN)C(=O)N[C@@H](CCC(N)=O)C(N)=O)C(C)C)NC(=O)[C@H](C(C)C)NC(=O)[C@H]([C@@H](C)O)NC(=O)[C@H](CCCCN)NC(=O)[C@H](C)NC(=O)[C@H](CC(C)C)NC(=O)[C@H](C(C)C)NC(=O)[C@@H](NC(=O)[C@@H](NC(=O)CNC(=O)[C@H](CCCCN)NC(=O)[C@H](CO)NC(=O)[C@@H](NC(=O)[C@H](CC(C)C)NC(=O)CNC(=O)[C@@H](NC(=O)[C@@H](N)CC(C)C)[C@@H](C)CC)C(C)C)[C@@H](C)O)CSSC[C@@H](C(=O)N[C@@H](CCCCN)C(=O)N[C@@H](Cc2ccccc2)C(=O)N[C@@H](CC(C)C)C(N)=O)NC(=O)[C@H](C)NC(=O)[C@H](CCCCN)NC(=O)[C@H](CC(C)C)NC(=O)[C@H](CCSC)NC(=O)[C@H](C(C)C)NC(=O)[C@H](CCCCN)NC1=O)[C@@H](C)O)C(C)C)C(C)C` [Analogue 1c], the “Concentration at which cytolysis (rapid increase in fluorescence followed by decrease to or below baseline) was observed” value in the data set on F11 cells is on record as not below 1 µM. In addition, the concentration for a half-maximal effect (EC50) (usually the concentration needed to bring the measured effect to its halfway point) in the data set on F11 cells (Calcium 4 dye, max-min fluorescence in 300 s after peptide addition, PSS with 0.1% BSA, mean ± SEM, triplicate, read-out: Neuronal Cell Activation (EC50)) came out at 1.39 ± 0.34 µM. Also, the IC50 (as a rule, the point on the concentration scale where inhibition reaches its midpoint) in the data set with Haemonchus contortus worked out at 7.2 ± 0.1 µM. The “Fold less active than levamisole (IC50 higher)” value in the data set with Haemonchus contortus (larval development, drug-susceptible isolate) was “approximately 10 fold”. The “Insecticidal Activity (LD50)” value in the data set on Drosophila melanogaster is given as 552.7 ± 18.2 ^a pmol/g. For the same molecule, in the data set with HEK293 cells, the “Cytotoxicity (CC50)” value is reported as 0.7 µM. Further, the “Hemolysis (HC50)” value in the data set on human red blood cells was more than 12 µM.
As to “H-LIGLVSKGTSVLVKTVSKKVLKQ-NH2 [Analogue 4b]”, the “Neuronal Cell Activation (EC50)” value in the data set with F11 cells (setting [1]) was “inactive”. Further, the IC50 in the data set with Haemonchus contortus came out at 61.3 ± 4.4 µM. For the same molecule, the “Insecticidal Activity (LD50)” value in the data set on Drosophila melanogaster was more than 600 pmol/g. The “Cytotoxicity (CC50)” value with HEK293 cells is reported as more than 15 µM. Moreover, the “Hemolysis (HC50)” value in the data set on human red blood cells is recorded as more than 15 µM.
For `CC[C@H](C)[C@H](NC(=O)[C@@H](N)CC(C)C)C(=O)NCC(=O)N[C@@H](CC(C)C)C(=O)N[C@H](C(=O)N[C@@H](CO)C(=O)N[C@@H](CCCCN)C(=O)NCC(=O)N[C@H](C(=O)N[C@H]1CSSC[C@@H](C(=O)N[C@@H](CCCCN)C(=O)N[C@@H](CCCCN)C(=O)N[C@H](C(=O)N[C@@H](CC(C)C)C(=O)N[C@@H](CCCCN)C(=O)N[C@@H](CCC(N)=O)C(N)=O)C(C)C)NC(=O)[C@H](C(C)C)NC(=O)[C@H]([C@@H](C)O)NC(=O)[C@H](CCCCN)NC(=O)[C@H](C(C)C)NC(=O)[C@H](CC(C)C)NC(=O)[C@H](C(C)C)NC1=O)[C@@H](C)O)C(C)C` [Analogue 4a], in the data set on F11 cells (setting [1]), the “Neuronal Cell Activation (EC50)” value is “inactive”. Moreover, the IC50 in the data set with Haemonchus contortus is 65.5 ± 5.5 µM. The “Insecticidal Activity (LD50)” value in the data set with Drosophila melanogaster is reported as more than 600 pmol/g. In the data set on HEK293 cells, the “Cytotoxicity (CC50)” value is more than 15 µM. The “Hemolysis (HC50)” value in the data set with human red blood cells was more than 15 µM.

(Values after PMC7400207, “It Takes Two: Dimerization Is Essential for the Broad-Spectrum Predatory and Defensive Activities of the Venom Peptide Mp1a from the Jack Jumper Ant Myrmecia pilosula” (Biomedicines, 2020).)
